# Experiments:
# Assay type in all cases: functional
# CCRF-CEM = test: Growth inhibition of human CCRF-CEM cells
# HL-60(TB) = test: Growth inhibition of human HL-60(TB) cells
# K562 = test: Growth inhibition of human K562 cells
# MOLT-4 = test: Growth inhibition of human MOLT4 cells
# [1] = Growth inhibition of human […] cells
# SR = test: Growth inhibition of human SR cells
# EKVX = test: Growth inhibition of human EKVX cells
# HOP-62 = test: Growth inhibition of human HOP62 cells
# HOP-92 = test: Growth inhibition of human HOP92 cells
# NCI-H522 = test: Growth inhibition of human NCI-H522 cells
# HT-29 = test: Growth inhibition of human HT-29 cells
# KM12 = test: Growth inhibition of human KM12 cells
# SF-268 = test: Growth inhibition of human SF268 cells
# SNB-75 = test: Growth inhibition of human SNB75 cells
# U-251 = test: Growth inhibition of human U251 cells
# Malme-3M = test: Growth inhibition of human MALME-3M cells
# SK-MEL-2 = test: Growth inhibition of human SK-MEL-2 cells
# SK-MEL-28 = test: Growth inhibition of human SK-MEL-28 cells
# IGROV-1 = test: Growth inhibition of human IGROV1 cells
# OVCAR-3 = test: Growth inhibition of human OVCAR-3 cells
# OVCAR-8 = test: Growth inhibition of human OVCAR8 cells
# A498 = test: Growth inhibition of human A498 cells
# [2] = Growth inhibition of human MCF7/ADR resistant cells; conditions: NCI/ADR-RES
# MDA-MB-231 = test: Growth inhibition of human MDA-MB-231 cells
# [3] = Growth inhibition of human Hs 578T cells
# MDA-MB-435 = test: Growth inhibition of human MDA-MB-435 cells
# L1210 = test: Growth inhibition of mouse L1210 cells assessed as zone units at 50 ug/disk by disk diffusion agar colony formation assay
# P388 = test: Growth inhibition of mouse P388 cells assessed as zone units at 50 ug/disk by disk diffusion agar colony formation assay
# PO3 = test: Growth inhibition of mouse PO3 cells assessed as zone units at 50 ug/disk by disk diffusion agar colony formation assay
# [4] = Growth inhibition of mouse M17/ADR cells assessed as zone units at 50 ug/disk by disk diffusion agar colony formation assay
# A549 = test: Growth inhibition of human A549 cells
# NCI-H226 = test: Growth inhibition of human NCI-H226 cells
# NCI-H23 = test: Growth inhibition of human NCI-H23 cells
# NCI-H322M = test: Growth inhibition of human NCI-H322M cells
# NCI-H460 = test: Growth inhibition of human NCI-H460 cells
# COLO 205 = test: Growth inhibition of human COLO205 cells
# HCC 2998 = test: Growth inhibition of human HCC2998 cells
# HCT-116 = test: Growth inhibition of human HCT116 cells
# HCT-15 = test: Growth inhibition of human HCT15 cells
# SW-620 = test: Growth inhibition of human SW620 cells
# SF-295 = test: Growth inhibition of human SF295 cells
# SF-539 = test: Growth inhibition of human SF539 cells
# M14 = test: Growth inhibition of human M14 cells
# SK-MEL-5 = test: Growth inhibition of human SK-MEL-5 cells
# UACC-257 = test: Growth inhibition of human UACC257 cells
# UACC-62 = test: Growth inhibition of human UACC62 cells
# OVCAR-4 = test: Growth inhibition of human OVCAR4 cells
# OVCAR-5 = test: Growth inhibition of human OVCAR5 cells
# SK-OV-3 = test: Growth inhibition of human SKOV3 cells
# 786-0 = test: Growth inhibition of human 786-0 cells
# ACHN = test: Growth inhibition of human ACHN cells
# CAKI-1 = test: Growth inhibition of human Caki1 cells
# RXF 393 = test: Growth inhibition of human […] cells
# SN12C = test: Growth inhibition of human SN12C cells
# UO-31 = test: Growth inhibition of human UO31 cells
# DU-145 = test: Growth inhibition of human DU145 cells
# MCF7 = test: Growth inhibition of human MCF7 cells
# MDA-N = test: Growth inhibition of human MDA-N cells
# BT-549 = test: Growth inhibition of human BT549 cells
# T47D = test: Growth inhibition of human T47D cells
# [5] = Growth inhibition of human H116 cells assessed as zone units at 50 ug/disk by disk diffusion agar colony formation assay
# PC-3 = test: Growth inhibition of human PC3 cells
# MC-38 = test: Growth inhibition of mouse C38 cells assessed as zone units at 50 ug/disk by disk diffusion agar colony formation assay
# CX-1 = test: Growth inhibition of human CX-1 cells assessed as zone units at 50 ug/disk by disk diffusion agar colony formation assay
smiles,measurement,setting,value
CC1=C(CC/C(C)=C/CC[C@@]2(C)CC[C@@H]([C@H](C)C(=O)O)OO2)C(C)(C)CCC1 [EPIMUQUBILIN A],GI50,CCRF-CEM,61700 nM
same,GI50,HL-60(TB),47800 nM
same,GI50,K562,> 100000 nM
same,GI50,MOLT-4,42600 nM
same,GI50,[1],> 100000 nM
same,GI50,SR,> 100000 nM
same,GI50,EKVX,> 100000 nM
same,GI50,HOP-62,> 100000 nM
same,GI50,HOP-92,> 100000 nM
same,GI50,NCI-H522,13800 nM
same,GI50,HT-29,> 100000 nM
same,GI50,KM12,> 100000 nM
same,GI50,SF-268,> 100000 nM
same,GI50,SNB-75,> 100000 nM
same,GI50,U-251,> 100000 nM
same,GI50,Malme-3M,> 100000 nM
same,GI50,SK-MEL-2,> 100000 nM
same,GI50,SK-MEL-28,> 100000 nM
same,GI50,IGROV-1,43600 nM
same,GI50,OVCAR-3,> 100000 nM
same,GI50,OVCAR-8,> 100000 nM
same,GI50,A498,> 100000 nM
same,GI50,[2],> 100000 nM
same,GI50,MDA-MB-231,> 100000 nM
same,GI50,[3],> 100000 nM
same,GI50,MDA-MB-435,> 100000 nM
same,Activity,L1210,50 Zone units
same,Activity,P388,50 Zone units
same,Activity,PO3,0 Zone units
same,Activity,[4],70 Zone units
C=C1CCCC(C)(C)C1CC[C@]1(C)CC[C@@H]([C@@H](C)C(=O)O)OO1 (some centres not stated) [EPINUAPAPUIN B],GI50,CCRF-CEM,2270 nM
same,GI50,HL-60(TB),2060 nM
same,GI50,MOLT-4,7430 nM
same,GI50,[1],> 10000 nM
same,GI50,SR,2720 nM
same,GI50,A549,> 10000 nM
same,GI50,EKVX,> 10000 nM
same,GI50,HOP-62,9540 nM
same,GI50,HOP-92,6630 nM
same,GI50,NCI-H226,> 10000 nM
same,GI50,NCI-H23,> 10000 nM
same,GI50,NCI-H322M,> 10000 nM
same,GI50,NCI-H460,> 10000 nM
same,GI50,NCI-H522,2060 nM
same,GI50,COLO 205,> 10000 nM
same,GI50,HCC 2998,> 10000 nM
same,GI50,HCT-116,> 10000 nM
same,GI50,HCT-15,> 10000 nM
same,GI50,HT-29,> 10000 nM
same,GI50,KM12,5730 nM
same,GI50,SW-620,> 10000 nM
same,GI50,SF-295,> 10000 nM
same,GI50,SF-539,> 10000 nM
same,GI50,SNB-75,> 10000 nM
same,GI50,U-251,> 10000 nM
same,GI50,Malme-3M,3960 nM
same,GI50,M14,> 10000 nM
same,GI50,SK-MEL-2,> 10000 nM
same,GI50,SK-MEL-28,> 10000 nM
same,GI50,SK-MEL-5,> 10000 nM
same,GI50,UACC-257,> 10000 nM
same,GI50,UACC-62,> 10000 nM
same,GI50,IGROV-1,1730 nM
same,GI50,OVCAR-3,> 10000 nM
same,GI50,OVCAR-4,> 10000 nM
same,GI50,OVCAR-5,> 10000 nM
same,GI50,OVCAR-8,> 10000 nM
same,GI50,SK-OV-3,> 10000 nM
same,GI50,786-0,> 10000 nM
same,GI50,A498,> 10000 nM
same,GI50,ACHN,> 10000 nM
same,GI50,CAKI-1,> 10000 nM
same,GI50,RXF 393,> 10000 nM
same,GI50,SN12C,> 10000 nM
same,GI50,UO-31,> 10000 nM
same,GI50,DU-145,> 10000 nM
same,GI50,MCF7,> 10000 nM
same,GI50,[2],> 10000 nM
same,GI50,MDA-MB-231,> 10000 nM
same,GI50,[3],> 10000 nM
same,GI50,MDA-MB-435,> 10000 nM
same,GI50,MDA-N,> 10000 nM
same,GI50,BT-549,> 10000 nM
same,GI50,T47D,> 10000 nM
same,Activity,L1210,160 Zone units
same,Activity,P388,160 Zone units
same,Activity,PO3,60 Zone units
same,Activity,[4],210 Zone units
same,Activity,[5],70 Zone units
C=C1CCC[C@H]2[C@](C)(CC[C@]3(C)CC[C@H]([C@@H](C)C(=O)O)OO3)[C@@H](C)CC[C@]12C [SIGMOSCEPTRELLIN A],GI50,CCRF-CEM,200 nM
same,GI50,HL-60(TB),140 nM
same,GI50,MOLT-4,980 nM
same,GI50,[1],1710 nM
same,GI50,SR,1130 nM
same,GI50,A549,1450 nM
same,GI50,EKVX,1170 nM
same,GI50,HOP-62,1050 nM
same,GI50,HOP-92,290 nM
same,GI50,NCI-H226,110 nM
same,GI50,NCI-H23,2020 nM
same,GI50,NCI-H322M,1910 nM
same,GI50,NCI-H460,1590 nM
same,GI50,NCI-H522,120 nM
same,GI50,COLO 205,2180 nM
same,GI50,HCC 2998,1550 nM
same,GI50,HCT-116,1800 nM
same,GI50,HCT-15,1890 nM
same,GI50,HT-29,1570 nM
same,GI50,KM12,940 nM
same,GI50,SW-620,1570 nM
same,GI50,SF-295,1460 nM
same,GI50,SF-539,1610 nM
same,GI50,SNB-75,1080 nM
same,GI50,U-251,1730 nM
same,GI50,Malme-3M,1200 nM
same,GI50,M14,3290 nM
same,GI50,SK-MEL-2,2170 nM
same,GI50,SK-MEL-28,3310 nM
same,GI50,SK-MEL-5,2680 nM
same,GI50,UACC-257,3680 nM
same,GI50,UACC-62,2320 nM
same,GI50,IGROV-1,120 nM
same,GI50,OVCAR-3,1850 nM
same,GI50,OVCAR-4,1890 nM
same,GI50,OVCAR-5,1740 nM
same,GI50,OVCAR-8,1570 nM
same,GI50,SK-OV-3,1570 nM
same,GI50,786-0,610 nM
same,GI50,A498,1930 nM
same,GI50,ACHN,1380 nM
same,GI50,CAKI-1,1760 nM
same,GI50,RXF 393,1220 nM
same,GI50,SN12C,1780 nM
same,GI50,UO-31,1220 nM
same,GI50,PC-3,1690 nM
same,GI50,MCF7,1780 nM
same,GI50,MDA-MB-231,3710 nM
same,GI50,[3],1080 nM
same,GI50,MDA-MB-435,1980 nM
same,GI50,MDA-N,1830 nM
same,GI50,BT-549,1810 nM
same,GI50,T47D,2000 nM
same,Activity,L1210,230 Zone units
same,Activity,P388,230 Zone units
same,Activity,MC-38,180 Zone units
same,Activity,[4],290 Zone units
same,Activity,CX-1,220 Zone units

# From ChEMBL document CHEMBL1141727, “Isolation and cytotoxic evaluation of marine sponge-derived norterpene peroxides” (J Nat Prod, 1998)
